{"source": "paper PMC3510655", "about": "(Chemical science (Royal Society of Chemistry : 2010), 2013)", "biological_target": "T1, quinone reductase 2 (QR2) (Homo sapiens, UniProt P16083)", "T1 sequence (P16083 1-231)": "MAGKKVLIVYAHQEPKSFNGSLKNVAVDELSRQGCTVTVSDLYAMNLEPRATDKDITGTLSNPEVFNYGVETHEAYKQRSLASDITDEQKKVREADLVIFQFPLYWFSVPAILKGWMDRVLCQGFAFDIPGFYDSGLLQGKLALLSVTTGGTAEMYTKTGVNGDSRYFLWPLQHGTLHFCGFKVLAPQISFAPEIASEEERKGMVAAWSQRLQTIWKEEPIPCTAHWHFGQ", "experiment": "QR2 inhibition assay using human recombinant protein", "assay_type": "biochemical", "details": "authors' assay system"}
{"substance": "Ammosamide H [compound 10]", "values": [{"measurement": "IC50 against QR2", "result": "irreproducible results"}]}
{"substance": "Ammosamide E [compound 1]", "values": [{"measurement": "IC50 against QR2", "result": "nearly equipotent to 4"}]}
